Read-outs that look alike come from different tables or passages of the source.
How the values were obtained:
[1] = tested on: T47D (PI3Kα H1047R mutant) cells; test: CellTiter-Glo 2.0 luminescent cell viability assay, 72 hours, T47D cells; assay type: cell-based; details: T47D (PI3Kα H1047R mutant) cells, CellTiter-Glo, approximately 72 hours, read-out: T47D (H1047R mutant) Viability IC50
How it was run: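 Cells seeded at 1000 per well overnight were dosed with a 10-concentration, 1:4 series starting at 10 µM and incubated ~72 h at 37° C. Viability was read by CellTiter-Glo 2.0 luminescence after 30 min at room temperature. IC50 came from four-parameter fits of percent vehicle control.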

[2] = tested on: SKBR3 (PI3Kα wild type) cells; test: CellTiter-Glo 2.0 luminescent cell viability assay, 72 hours, SKBR3 cells; assay type: cell-based; details: Homo sapiens, SK-BR-3, 72 h, SKBR3 (PI3Kα wild type) cells, CellTiter-Glo, approximately 72 hours; read-out: SKBR3 (WT) Viability IC50
How it was run: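 Viability measured via CTG luminescence following roughly 72 hours of compound exposure at 37° C. Dosing used a 10 um starting concentration diluted 1:4 over 10 points; percent-of-vehicle data fitted with a variable-slope four-parameter model for IC50.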

Q: How did the IC50 ([1]; Homo sapiens, T47D, 72 h) turn out when `Cc1cc(C(C)Nc2ccccc2P(C)(=O)O)c2nc(N3Cc4ccccc4C3)cc(=O)n2c1` (stereo not shown) [Example 11-333, (2-((1-(2-(isoindolin-2-yl)-7-methyl-4-oxo-4H-pyrido[1,2-a]pyrimidin-9-yl)ethyl)amino)phenyl)(methyl) phosphinic acid] was run?
A: > 10 µM

Q: What about the IC50 [2] of the same molecule?
A: > 10 µM

Q: For `Cc1cc(C(C)Nc2ccccc2C(=O)O)c2nc(N3CCN(c4ccc(C#N)cc4)CC3)cc(=O)n2c1` (stereo not shown) [Example 11-334, 2-((1-(2-(4-(4-cyanophenyl)piperazin-1-yl)-7-methyl-4-oxo-4H-pyrido[1,2-a]pyrimidin-9-yl)ethyl)amino)benzoic acid], which IC50 ([1]; Homo sapiens, T47D, 72 h) is on record?
A: 0.113 µM

Q: What about the IC50 [2] of the same molecule?
A: 1.27 µM

Q: `Cc1cc(C(C)Nc2ccccc2C(=O)O)c2nc(N3CCN(c4ccccc4)CC3)cc(=O)n2c1` (stereo not shown) [Example 11-335, 2-((1-(7-methyl-4-oxo-2-(4-phenylpiperazin-1-yl)-4H-pyrido[1,2-a]pyrimidin-9-yl)ethyl)amino)benzoic acid] was tested. Which IC50 ([1]; Homo sapiens, T47D, 72 h) did it give?
A: 0.386 µM

Q: And the IC50 [2]?
A: > 10 µM

Q: `Cc1cc(C(C)Nc2ccccc2C(=O)O)c2nc(N3CCN(C(=O)C4CC4)CC3)cc(=O)n2c1` (stereo not shown) [Example 11-336, 2-((1-(2-(4-(cyclopropanecarbonyl)piperazin-1-yl)-7-methyl-4-oxo-4H-pyrido[1,2-a]pyrimidin-9-yl)ethyl)amino)benzoic acid] was tested. Which IC50 ([1]; Homo sapiens, T47D, 72 h) did it give?
A: 2.74 µM

Q: And the IC50 [2]?
A: > 10 µM

Q: How did the IC50 ([1]; Homo sapiens, T47D, 72 h) turn out when `CC(=O)N1CCN(c2cc(=O)n3cc(C)cc(C(C)Nc4ccccc4C(=O)O)c3n2)CC1` (stereo not shown) [Example 11-337, 2-((1-(2-(4-acetylpiperazin-1-yl)-7-methyl-4-oxo-4H-pyrido[1,2-a]pyrimidin-9-yl)ethyl)amino)benzoic acid] was run?
A: > 10 µM

Q: What about the IC50 [2] of the same molecule?
A: > 10 µM

Q: `Cc1cc(C(C)Nc2ccccc2C(=O)O)c2nc(N3Cc4cccc(C#N)c4C3)cc(=O)n2c1` (stereo not shown) [Example 11-338, 2-((1-(2-(4-cyanoisoindolin-2-yl)-7-methyl-4-oxo-4H-pyrido[1,2-a]pyrimidin-9-yl)ethyl)amino)benzoic acid] was tested. Which IC50 ([1]; Homo sapiens, T47D, 72 h) did it give?
A: 2.42 µM

Q: And the IC50 [2]?
A: > 10 µM

Q: With `Cc1cc(C(C)Nc2ccccc2C(=O)O)c2nc(Nc3cccc(C#N)c3)cc(=O)n2c1` (stereo not shown) [Example 11-339, 2-((1-(2-((3-cyanophenyl)amino)-7-methyl-4-oxo-4H-pyrido[1,2-a]pyrimidin-9-yl)ethyl)amino)benzoic acid] as the molecule, how does the IC50 ([1]; Homo sapiens, T47D, 72 h) read?
A: > 10 µM

Q: What about the IC50 [2] of the same molecule?
A: > 10 µM

Q: What does the source list for `Cc1cc(C(C)Nc2ccccc2C(=O)O)c2nc(Oc3cccc(C#N)c3)cc(=O)n2c1` (stereo not shown) [Example 11-340, 2-((1-(2-(3-cyanophenoxy)-7-methyl-4-oxo-4H-pyrido[1,2-a]pyrimidin-9-yl)ethyl)amino)benzoic acid]?
A: IC50 ([1]; Homo sapiens, T47D, 72 h): > 10 µM; IC50 [2]: > 10 µM

Q: With `Cc1cc(C(C)Nc2ccccc2C(=O)O)c2nc(Oc3ccccc3)cc(=O)n2c1` (stereo not shown) [Example 11-341, 2-((1-(7-methyl-4-oxo-2-phenoxy-4H-pyrido[1,2-a]pyrimidin-9-yl)ethyl)amino)benzoic acid] as the molecule, how does the IC50 ([1]; Homo sapiens, T47D, 72 h) read?
A: > 10 µM

Q: What about the IC50 [2] of the same molecule?
A: > 10 µM

Q: `Cc1cc(C(C)Nc2ccccc2C(=O)O)c2nc(N3CCCC(C)(O)C3)cc(=O)n2c1` (stereo not shown) [Example 11-342, 2-((1-(2-(3-hydroxy-3-methylpiperidin-1-yl)-7-methyl-4-oxo-4H-pyrido[1,2-a]pyrimidin-9-yl)ethyl)amino)benzoic acid] was tested. Which IC50 ([1]; Homo sapiens, T47D, 72 h) did it give?
A: 4.47 µM

Q: And the IC50 [2]?
A: > 10 µM

Q: How did the IC50 ([1]; Homo sapiens, T47D, 72 h) turn out when `Cc1cc(C(C)Nc2ccccc2C(=O)O)c2nc(N3CCCC(O)C3)cc(=O)n2c1` (stereo not shown) [Example 11-343, 2-((1-(2-(3-hydroxypiperidin-1-yl)-7-methyl-4-oxo-4H-pyrido[1,2-a]pyrimidin-9-yl)ethyl)amino)benzoic acid] was run?
A: > 10 µM

Q: And the IC50 [2]?
A: > 10 µM

Q: Which results are given for `Cc1cc(C(C)Nc2ccccc2C(=O)O)c2nc(N3C4CCC3CC4)cc(=O)n2c1` (stereo not shown) [Example 11-344, 2-((1-(2-(7-azabicyclo[2.2.1]heptan-7-yl)-7-methyl-4-oxo-4H-pyrido[1,2-a]pyrimidin-9-yl)ethyl)amino)benzoic acid]?
A: IC50 ([1]; Homo sapiens, T47D, 72 h): 2.15 µM; IC50 [2]: > 10 µM

Q: `Cc1cc(C(=O)N2CCCC2C(=O)O)c2nc(N3CCCCC3)cc(=O)n2c1` (stereo not shown) [Example 11-345, (7-methyl-4-oxo-2-(piperidin-1-yl)-4H-pyrido[1,2-a]pyrimidin-9-carbonyl)proline] was tested. Which IC50 ([1]; Homo sapiens, T47D, 72 h) did it give?
A: > 10 µM

Q: What about the IC50 [2] of the same molecule?
A: > 10 µM

Q: `Cc1cc(C(=O)N2CCCCC2C(=O)O)c2nc(N3CCCCC3)cc(=O)n2c1` (stereo not shown) [Example 11-346, 1-(7-methyl-4-oxo-2-(piperidin-1-yl)-4H-pyrido[1,2-a]pyrimidine-9-carbonyl)piperidine-2-carboxylic acid] was tested. Which IC50 ([1]; Homo sapiens, T47D, 72 h) did it give?
A: > 10 µM

Q: What about the IC50 [2] of the same molecule?
A: > 10 µM

Q: How did the IC50 ([1]; Homo sapiens, T47D, 72 h) turn out when `Cc1cc(N2CCC(C(=O)O)CC2)c2nc(N3CCCCC3)cc(=O)n2c1` [Example 11-347, 1-(7-methyl-4-oxo-2-(piperidin-1-yl)-4H-pyrido[1,2-a]pyrimidin-9-yl)piperidine-4-carboxylic acid] was run?
A: > 10 µM

Q: And the IC50 [2]?
A: > 10 µM

Q: With `Cc1cc(C(C)Nc2cnc(Cl)cc2C(=O)O)c2nc(N3Cc4ccccc4C3)c(C)c(=O)n2c1` (stereo not shown) [Example 11-348, 2-chloro-5-((1-(2-(isoindolin-2-yl)-3,7-dimethyl-4-oxo-4H-pyrido[1,2-a]pyrimidin-9-yl)ethyl)amino)isonicotinic acid] as the molecule, how does the IC50 ([1]; Homo sapiens, T47D, 72 h) read?
A: 5.49 µM

Q: And the IC50 [2]?
A: > 10 µM

Q: Which IC50 ([1]; Homo sapiens, T47D, 72 h) does the source give for `Cc1cc(C(C)Nc2ccccc2C(=O)O)c2nc(N3Cc4ccccc4C3)c(C#N)c(=O)n2c1` (stereo not shown) [Example 11-349, 2-((1-(3-cyano-2-(isoindolin-2-yl)-7-methyl-4-oxo-4H-pyrido[1,2-a]pyrimidin-9-yl)ethyl)amino)benzoic acid] here?
A: 0.332 µM

Q: And the IC50 [2]?
A: > 10 µM

Q: How did the IC50 ([1]; Homo sapiens, T47D, 72 h) turn out when `Cc1cc(C(C)Nc2ccncc2C(=O)O)c2nc(N3Cc4ccccc4C3)c(C)c(=O)n2c1` (stereo not shown) [Example 11-350, 4-((1-(2-(isoindolin-2-yl)-3,7-dimethyl-4-oxo-4H-pyrido[1,2-a]pyrimidin-9-yl)ethyl)amino)nicotinic acid] was run?
A: > 10 µM

Q: What about the IC50 [2] of the same molecule?
A: > 10 µM

Q: Which results are given for `Cc1cc([C@@H](C)Nc2ccc(F)nc2C(=O)O)c2nc(N3Cc4ccccc4C3)c(C)c(=O)n2c1` [Example 11-351, (R)-6-fluoro-3-((1-(2-(isoindolin-2-yl)-3,7-dimethyl-4-oxo-4H-pyrido[1,2-a]pyrimidin-9-yl)ethyl)amino)picolinic acid]?
A: IC50 [1]: 0.946 µM; IC50 [2]: > 10 µM

Q: Which IC50 ([1]; Homo sapiens, T47D, 72 h) does the source give for `Cc1cc(C(C)Nc2ccc(F)nc2C(=O)O)c2nc(N3Cc4ccccc4C3)c(C)c(=O)n2c1` (stereo not shown) [Example 11-352, 6-fluoro-3-((1-(2-(isoindolin-2-yl)-3,7-dimethyl-4-oxo-4H-pyrido[1,2-a]pyrimidin-9-yl)ethyl)amino)picolinic acid] here?
A: 0.0747 µM

Q: And the IC50 [2]?
A: > 10 µM

Q: Which IC50 ([1]; Homo sapiens, T47D, 72 h) does the source give for `Cc1cc([C@H](C)Nc2ccc(C(F)(F)F)nc2C(=O)O)c2nc(N3Cc4ccccc4C3)c(C)c(=O)n2c1` [Example 11-353, (S)-3-((1-(2-(isoindolin-2-yl)-3,7-dimethyl-4-oxo-4H-pyrido[1,2-a]pyrimidin-9-yl)ethyl)amino)-6-(trifluoromethyl) picolinic acid] here?
A: 6.29 µM

Q: What about the IC50 [2] of the same molecule?
A: > 10 µM

Q: How did the IC50 ([1]; Homo sapiens, T47D, 72 h) turn out when `Cc1cc([C@@H](C)Nc2ccc(C(F)(F)F)nc2C(=O)O)c2nc(N3Cc4ccccc4C3)c(C)c(=O)n2c1` [Example 11-354, (R)-3-((1-(2-(isoindolin-2-yl)-3,7-dimethyl-4-oxo-4H-pyrido[1,2-a]pyrimidin-9-yl)ethyl)amino)-6-(trifluoromethyl)picolinic acid] was run?
A: 0.703 µM

Q: What about the IC50 [2] of the same molecule?
A: > 10 µM

Q: Which IC50 ([1]; Homo sapiens, T47D, 72 h) does the source give for `Cc1cc(C(C)Nc2ccc(C(F)(F)F)nc2C(=O)O)c2nc(N3Cc4ccccc4C3)c(C)c(=O)n2c1` (stereo not shown) [Example 11-355, 3-((1-(2-(isoindolin-2-yl)-3,7-dimethyl-4-oxo-4H-pyrido[1,2-a]pyrimidin-9-yl)ethyl)amino)-6-(trifluoromethyl) picolinic acid] here?
A: 0.88 µM

Q: And the IC50 [2]?
A: > 10 µM

Q: Which IC50 ([1]; Homo sapiens, T47D, 72 h) does the source give for `Cc1cc(C(C)Nc2cccnc2C(=O)O)c2nc(N3CCCCC3)c(C)c(=O)n2c1` (stereo not shown) [Example 11-356, 3-((1-(3,7-dimethyl-4-oxo-2-(piperidin-1-yl)-4H-pyrido[1,2-a]pyrimidin-9-yl)ethyl)amino)picolinic acid] here?
A: 0.532 µM

Q: What about the IC50 [2] of the same molecule?
A: 1.2 µM

Q: Which IC50 ([1]; Homo sapiens, T47D, 72 h) does the source give for `Cc1cc([C@H](C)Nc2ccc(Cl)nc2C(=O)O)c2nc(N3CCCCC3)c(C)c(=O)n2c1` [Example 11-357, (S)-6-chloro-3-((1-(3,7-dimethyl-4-oxo-2-(piperidin-1-yl)-4H-pyrido[1,2-a]pyrimidin-9-yl)ethyl)amino)picolinic acid] here?
A: 0.195 µM

Q: What about the IC50 [2] of the same molecule?
A: > 10 µM

Q: With `Cc1cc([C@@H](C)Nc2ccc(Cl)nc2C(=O)O)c2nc(N3CCCCC3)c(C)c(=O)n2c1` [Example 11-358, (R)-6-chloro-3-((1-(3,7-dimethyl-4-oxo-2-(piperidin-1-yl)-4H-pyrido[1,2-a]pyrimidin-9-yl)ethyl)amino)picolinic acid] as the molecule, how does the IC50 ([1]; Homo sapiens, T47D, 72 h) read?
A: 1.27 µM

Q: And the IC50 [2]?
A: 6.21 µM

Q: Which results are given for `Cc1cc(C(C)Nc2ccc(Cl)nc2C(=O)O)c2nc(N3CCCCC3)c(C)c(=O)n2c1` (stereo not shown) [Example 11-359, 6-chloro-3-((1-(3,7-dimethyl-4-oxo-2-(piperidin-1-yl)-4H-pyrido[1,2-a]pyrimidin-9-yl)ethyl)amino)picolinic acid]?
A: IC50 ([1]; Homo sapiens, T47D, 72 h): 0.362 µM; IC50 [2]: 8.11 µM

Q: With `Cc1cc([C@@H](C)Nc2ccc(Cl)nc2C(=O)O)c2nc(N3Cc4ccccc4C3)c(C)c(=O)n2c1` [Example 11-360, (R)-6-chloro-3-((1-(2-(isoindolin-2-yl)-3,7-dimethyl-4-oxo-4H-pyrido[1,2-a]pyrimidin-9-yl)ethyl)amino)picolinic acid] as the molecule, how does the IC50 [1] read?
A: 1.09 µM

Q: What about the IC50 [2] of the same molecule?
A: 8.26 µM

Q: How did the IC50 ([1]; Homo sapiens, T47D, 72 h) turn out when `Cc1cc(C(C)Nc2ccc(Cl)nc2C(=O)O)c2nc(N3Cc4ccccc4C3)c(C)c(=O)n2c1` (stereo not shown) [Example 11-361] was run?
A: 0.277 µM

Q: What about the IC50 [2] of the same molecule?
A: 8.79 µM

Source: patent publication US20260078120A1, “SUBSTITUTED PYRIDOPYRIMIDINONES” (MIRATI THERAPEUTICS, INC., priority 2022, published 2026)
